# Laboratory results as given in patent publication US20220233556A1, “COMPOSITIONS AND METHODS FOR TREATING OPHTHALMIC CONDITIONS” (Medicon Pharmaceuticals, Inc., priority 2017, published 2022).
# Read-outs that look alike come from different tables or passages of the source.
# Columns and labels:
# [1] = PS biodistribution after topical Poloxamer 407-based in-situ gel; format: in vivo, New Zealand white rabbits; details: Poloxamer 407 gel, eye drops; for concentration at 3 h: New Zealand white, rabbit, topical, 5.4 % PS in formulation
# Procedure: Composition: 5.4% PS; 20% Poloxamer 407; 12% Vitamin E TPGS.
# Preparation Method: Poloxamer 407 solution (thermosensitive gel solution) was prepared using a “cold method.” The required amount of Poloxamer 407 and other excipients were dissolved in cold double-distilled water at 4° C. The mixture was stirred continuously until a clear solution was obtained. Then the appropriate amount of PS was dissolved in cold PM solution with continuous stirring at room temperature until a clear solution formed.
# Results: PS in this formulation was administered topically as eye drops to the eyes of New Zealand white rabbits. The biodistribution of PS in ocular tissues at 3 h and 6 h was determined by HPLC.
# [2] = Ocular PK study of PS nanoparticles (mPEG-PLA), topical eye drops; format: in vivo, New Zealand white rabbits; design: AUC(0-t) / AUC0-16h, cornea / AUC0-16h, conjunctiva: concentration or dose not given beside the values; details: for AUC(0-t) / Cmax: New Zealand white, rabbit, topical or ocular
# Procedure: Composition: ˜3.0-3.5% PS, 96.5˜97% methoxy poly(ethylene glycol)-poly(lactide) (mPEG-PLA).
# Preparation Method: Oil phase: 150 mg of PS and 1 g of PEG-PLA (Akina, Inc) were dissolved in 20 mL dichloromethane (DCM). Water phase: 365 mg of sodium cholate were dissolved in 60 ml of purified water. 5 mL of the oil phase was gently added into 15 mL of the water phase in a 50 mL Eppendorf conical tube. To create an emulsion, we used robe sonication for 2 min at 75% output (Branson 150, Fisher Scientific™, USA); the watt output was 12-13. The emulsion was transferred into a 100 mL beaker and stirred overnight at 600 rpm in a chemical hood until the DCM was fully evaporated. This was followed by centrifugation at 14,000 rpm for 1 h (Dupont, RC-5C). Then, the supernatant was transferred to another tube into which 3 mL of PBS were added to resuspend the nanoparticles. The nanoparticle solution was centrifuged for 6-7 seconds to remove aggregates. This supernatant was the final preparation.
# Ocular PK study: PS formulated in nanoparticles as above was administered topically as eye drops to New Zealand white rabbits. The biodistribution of PS in ocular tissues at the indicated time points post administration was determined by HPLC.
# [3] = Biodistribution of PS nanoparticles after intravitreal injection; format: in vivo, New Zealand white rabbits; details: New Zealand white, rabbit
# Procedure: Biodistribution of PS after intravitreal injection: PS formulated in nanoparticles as above was injected directly into the vitreous of New Zealand white rabbits. The biodistribution of PS in ocular tissues at the indicated time points post administration was determined by HPLC.
# [4] = PS biodistribution after topical alternative sodium alginate-based in-situ gel; format: in vivo, New Zealand white rabbits; details: New Zealand white, rabbit, 3 % PS in formulation
# Procedure: Composition: 3% PS, 1.5% sodium alginate, 15% Tween 80, 10% (2-hydroxypropyl)-β-cyclodextrin, 10% polyethylene glycol 400 (PEG400), 5% polyoxyl stearate.
# Preparation Method: A sodium alginate solution was prepared by adding an appropriate amount of sodium alginate to deionized water and heating the mixture to 90° C. with fast stirring (500 rpm). Once sodium alginate was completely dissolved, the solution was filtered through a 0.22 μm filter. Then, PS and additional excipients were added to achieve the above concentrations and stirred at 50° C. at 500 rpm until complete dissolution.
# Results: PS in this formulation was administered topically to the eyes of New Zealand white rabbits and its biodistribution was determined as above.
# [5] = Rabbit ocular PK study of PS emulsion (2% PS); format: in vivo, New Zealand rabbits; details: 2% PS emulsion
# Procedure: A formulation includes 2% PS; 5% Propylene glycol, 10% Mineral oil, 4% Tween 60, 4% Tween 80, 10% (2-hydroxypropyl)-β-cyclodextrin (HP-β-CD). Preparation method (2 mL scale): Oil phase: weight PS into glass vial, add propylene glycol, stir at 50° C. to obtain a clear solution. Then add mineral oil, stir to obtain a clear solution. Water phase: Dissolve HP-β-CD, […] and Tween 80 into water. Add water phase into oil phase, probe-sonicate for 5 sec, 8 times, with 5 sec intervals. Resultant emulsion is filtrated through 0.22 μm filter.
# Rabbit ocular pharmacokinetic (PK) study: PS was administered to New Zealand rabbits topically to the eye; as three 25 μL eye drops, 5 min apart. Rabbits were euthanized at eight specified time points between 0.25 to 16 h, ocular tissues were dissected and PS was extracted with acetonitrile and its tissue levels as well as those of its metabolites were determined by HPLC as described (Xie G. et al., Br J Pharmacol 165:2′52-2166; 2012).
# [6] = aqueous humor, other: intravitreal, 2% PS Nanoparticle Soln., read-out: PS in Aqueous humor
# [7] = cornea, other: intravitreal, 0.2% PS Nanoparticle Soln., read-out: PS in Cornea
# [8] = cornea, other: intravitreal, 2% PS Nanoparticle Soln., read-out: PS in Cornea
# [9] = retina, other: intravitreal, 0.2% PS Nanoparticle Soln., read-out: PS in Retina
# [10] = retina, other: intravitreal, 2% PS Nanoparticle Soln., read-out: PS in Retina
# [11] = sclera, other: intravitreal, 2% PS Nanoparticle Soln., read-out: PS in Sclera
# [12] = vitreous body, other: intravitreal, 0.2% PS Nanoparticle Soln., read-out: PS in Vitreous body
# [13] = conjunctiva, read-out: PS in Conjunctiva
# [14] = three 25 μL eye drops, PS and its metabolites
structure (smiles),measurement,setting,value
"CCOP(=O)(OCC)OCCCCOC(=O)CC1=C(C)/C(=C/c2ccc([S+](C)[O-])cc2)c2ccc(F)cc21 (stereo not shown) [PS, phosphosulindac]",PS in Aqueous humor,"[1]; 3 h, 5.4% PS",0.3 µM
same,PS in Conjunctiva,"[1]; 3 h, 5.4% PS",5.6 µM
same,PS in Aqueous humor,"[1]; 6 h, 5.4% PS",0.3 µM
same,PS in Conjunctiva,"[1]; 6 h, 5.4% PS",10.7 µM
same,PS in Cornea,"[1]; 6 h, 5.4% PS",13.6 µM
same,concentration at 3 h,"[1]; choroid, 3 h, read-out: PS in Choroid",0.9 µM
same,concentration at 3 h,"[1]; cornea, 3 h, read-out: PS in Cornea",45.1 µM
same,AUC(0-t),"[2]; aqueous humor, read-out: AUC0-16 h, Aqueous humor",3.4 µM·h
same,Cmax,"[2]; aqueous humor, read-out: Cmax, Aqueous humor",2.6 µM
same,AUC(0-t),"[2]; ciliary body, read-out: AUC0-16 h, Ciliary body",3.6 µM·h
same,Cmax,"[2]; ciliary body, read-out: Cmax, Ciliary body",2.6 µM
same,AUC(0-t),"[2]; conjunctiva, read-out: AUC0-16 h, Conjunctiva",61.7 µM·h
same,Cmax,"[2]; conjunctiva, read-out: Cmax, Conjunctiva",26.7 µM
same,AUC(0-t),"[2]; cornea, read-out: AUC0-16 h, Cornea",156 µM·h
same,Cmax,"[2]; cornea, read-out: Cmax, Cornea",101 µM
same,AUC(0-t),"[2]; iris, read-out: AUC0-16 h, Iris",13.6 µM·h
same,Cmax,"[2]; iris, read-out: Cmax, Iris",5.2 µM
same,AUC(0-t),"[2]; sclera, read-out: AUC0-16 h, Sclera",3.3 µM·h
same,Cmax,"[2]; sclera, read-out: Cmax, Sclera",2.1 µM
same,"Cmax, conjunctiva",[2]; PS and its metabolites,26.7 µM
same,"Cmax, cornea",[2]; PS and its metabolites,101.3 μm
same,concentration at 0.5 h,"[3]; aqueous humor, other: intravitreal, 0.2% PS Nanoparticle Soln., read-out: PS in Aqueous humor",0 µM
same,concentration at 0.5 h,[3]; [6],0 µM
same,concentration at 1 h,[3]; [6],1.3 µM
same,concentration at 0.5 h,[3]; [7],23.5 µM
same,concentration at 1 h,[3]; [7],22.4 µM
same,concentration at 0.5 h,[3]; [8],187 µM
same,concentration at 1 h,[3]; [8],147 µM
same,concentration at 0.5 h,[3]; [9],187 µM
same,concentration at 1 h,[3]; [9],109 µM
same,concentration at 0.5 h,[3]; [10],376 µM
same,concentration at 1 h,[3]; [10],220 µM
same,concentration at 0.5 h,"[3]; sclera, other: intravitreal, 0.2% PS Nanoparticle Soln., read-out: PS in Sclera",39.8 µM
same,concentration at 0.5 h,[3]; [11],224 µM
same,concentration at 1 h,[3]; [11],180 µM
same,concentration at 0.5 h,"[3]; vitreous body, other: intravitreal injection, 2 % PS (nanoparticle solution; injected volume not stated), 2% PS Nanoparticle Soln., read-out: PS in Vitreous body",125 µM
same,concentration at 0.5 h,[3]; [12],198 µM
same,concentration at 1 h,[3]; [12],56.2 µM
same,concentration at 1 h,"[3]; vitreous body, other: intravitreal, 2% PS Nanoparticle Soln., read-out: PS in Vitreous body",34 µM
same,concentration at 1 h,"[4]; aqueous humor, read-out: PS in Aqueous humor",0.4 µM
same,concentration at 1 h,[4]; [13],4.9 µM
same,concentration at 3 h,[4]; [13],2.1 µM
same,concentration at 5 h,[4]; [13],2.3 µM
same,concentration at 8 h,"[4]; conjunctiva, 8 h",1.3 µM
same,concentration at 1 h,"[4]; cornea, read-out: PS in Cornea",17.8 µM
same,concentration at 3 h,"[4]; cornea, read-out: PS in Cornea",5 µM
same,concentration at 5 h,"[4]; cornea, read-out: PS in Cornea",1 µM
same,PS in the retina,[5]; eye drops,no PS was detected
same,"Cmax, aqueous humor",[5]; [14],0.9 μm
same,"Cmax, conjunctiva",[5]; [14],33.6 μm
same,"Cmax, cornea",[5]; [14],85.4 μm
same,AUC(0-t),"[5]; New Zealand, rabbit, iris and ciliary body, topical or ocular, eye drops, read-out: AUC0-16 h in the iris and ciliary body",< 4 µM·h
